Paper PMC8421406, “C9orf72-derived arginine-rich poly-dipeptides impede phase modifiers” (Nature Communications, 2021)
Where no end group is shown, it is not given here. HA = HA epitope tag

Assays:
[1] = tested on: MBP:FUS (full-length FUS droplets) / Kapβ2; experiment: Turbidity assay of FUS droplet formation (OD 395 nm); format: biochemical; details: equimolar poly-dipeptide and Kapβ2 (8 μM)
[2] = tested on: GFP:FUS-LC:NLS / mCh:FUS-LC hydrogel; experiment: Hydrogel binding assay, GFP:FUS-LC:NLS on mCh:FUS-LC hydrogel; format: biochemical; details: Kapβ2 0.1-1.0 µM; PR20 with 1.0 µM Kapβ2
Experimental: The experiment was independently repeated three times with similar results. Here, 10 μm scale bars are shown in the image. e Graphical description of hydrogel binding assay. Hydrogels of mCh:LC-domain accumulate GFP:LC-domain as it co-polymerizes. f Hydrogel binding assay for FUS-LC in the absence and presence of Kapβ2. mCh:FUS-LC (lower images) were incubated with 1.0 µM of GFP (left panel) or 1.0 µM of GFP:FUS-LC:NLS (right panel) in the presence of different concentrations of Kapβ2 (left to right: 0.1, 0.3, and 1.0 µM). g Quantitative analysis of Fig. 1f. Relative intensity of GFP signals is shown as the mean of three independent experiments ± SD, analyzed by one-way ANOVA followed by Dunnett’s multiple comparison test (**P < 0.01, ***P < 0.001). h Hydrogel binding assay for FUS-LC in the absence and presence of Kapβ2 and/or PR20. Hydrogel droplets of mCh:FUS-LC (lower images) were incubated with 1.0 µM of GFP (left panel) or GFP:FUS-LC:NLS (right panel). GFP:FUS-LC:NLS containing Kapβ2 (1.0 µM) was challenged for homotypic polymer extension in the absence or presence of different concentration of PR20. i Quantitative analysis of Fig. 1h. Relative intensity of GFP signals is shown as the mean of three independent experiments ± SD, analyzed by one-way ANOVA followed by Dunnett’s multiple comparison test (**P < 0.01). Source data are provided as a Source Data file. […]

[3] = tested on: GFP:hnRNPA2-LC / mCh:hnRNPA2-LC hydrogel; experiment: Hydrogel binding assay, hnRNPA2-LC; format: biochemical; details: 1.0 µM GFP:hnRNPA2-LC, Kapβ2 1.0 µM, PR20 1.0 µM
Description: Expression plasmids for recombinant proteins (GFP/mCherry fusion LC-domain of FUS (residue 2–214, GFP/mCh:FUS-LC) and GFP/mCherry fusion LC-domain of hnRNPA2 (residue 181–341, GFP/mCh:hnRNPA2-LC)) were obtained from the Steven L. McKnight Laboratory. Expression plasmid for GFP:FUS-LC fusion NLS (residue 501–526, GFP:FUS-LC:NLS), mCh fusion LC-domain of TDP43 (residue 262–414, mCh:TDP43-LC), and GFP-tagged cNLS (residue 78–99) fusion TDP43-LC (GFP:cNLS:TDP43-LC) were constructed using In-Fusion HD Cloning Kit (Takara Bio, Inc.). GFP/mCh:FUS-LC, GFP:FUS-LC:NLS, and GFP/mCh:hnRNPA2-LC were expressed in E. coli BL21(DE3) cells with 0.5 mM IPTG at 20 °C overnight and purified by Ni-NTA Agarose (FUJIFILM Wako Pure Chemical Corporation), as described in a previous study. GFP:cNLS:TDP43-LC were expressed with 1.0 mM IPTG at 37 °C for 3 h and mCh:TDP43-LC were expressed with 0.5 mM IPTG at 16 °C overnight. GFP:cNLS:TDP43-LC and mCh:TDP43-LC were purified by Ni-NTA as described in a previous study[48] with some modifications. […] Relative intensity of GFP signals across the hydrogel droplets were measured in triplicate by using the profile plot mode in ImageJ. […]

[4] = tested on: Kapβ2 / MBP:FUS-NLS complex; experiment: Competitive pull-down: release of MBP:FUS-NLS from GST:Kapβ2; format: binding; details: MBP:FUS-NLS (501–526) : GST:Kapβ2 1:1, PR20:HA competitor; repeated twice
Description: Unbound proteins were washed three times with the buffer.

PR20: twenty repeats of proline:arginine with an HA epitope tag at the C terminus, synthesized by SCRUM, Inc. (PRPRPRPRPRPRPRPRPRPRPRPRPRPRPRPRPRPRPRPR-{HA})
Inhibition of the ability of Kapβ2 to melt FUS droplets (turbidity) [1]: inhibited the ability of Kapβ2 | Effect on hydrogel binding of GFP:FUS-LC:NLS [2]: inhibited the ability of Kapβ2 from blocking the hydrogel binding of GFP:FUS-LC:NLS | Effect on ability of Kapβ2 to block hydrogel binding of hnRNPA2-LC [3]: inhibited the ability of Kapβ2 | Release of MBP:FUS-NLS from Kapβ2 [4]: release of MBP:FUS-NLS from Kapβ2
